Source: PubChem BioAssay AID588569 (Sanford-Burnham Center for Chemical Genomics, 2011)
Calls of active or inactive are those of the source.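 The calls were made as follows: active = mean IC50 of 20 µM or lower in the 6 hour cytotoxicity test; inactive = the rest.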

Test system: CHO-XBP1 cytotoxicity, ATPlite luminescence, 6 h
Assay: cytotoxicity in CHO-XBP1 reporter cells, SAR follow-up, cytotoxicity control for UPR adaptive arm activator project, cell-based, 6 h exposure, ATPlite luminescence (AID 588569)

SMILES	IC50
O=C(Nc1ccc(C(F)(F)F)cc1)c1cc(-c2ccncc2)nc2ccccc12	70.4 µM (inactive)
O=C(Nc1ccc(F)cc1)c1cc(-c2ccncc2)nc2ccccc12	> 80 µM (inactive)
O=C(Nc1ccc(Cl)cc1)c1cc(-c2ccncc2)nc2ccccc12	75.4 µM (inactive)
Cc1nc(Nc2nc(-c3ccccc3)cc(=O)[nH]2)nc2ccccc12	36.4 µM (inactive)
O=C(Nc1ccc(Br)c(C(F)(F)F)c1)c1cc(-c2ccncc2)nc2ccccc12	> 80 µM (inactive)
Cc1ccc(NC(=O)c2cc(-c3ccncc3)nc3ccccc23)cc1	> 80 µM (inactive)
Cc1cc(Br)cc(NC(=O)c2cc(-c3ccncc3)nc3ccccc23)c1	> 80 µM (inactive)
